SMILES strings stand for the structures. Read-outs that look alike come from different tables or passages of the source.

For one assay, the system named is ACHN cells. The assay is described as follows: Cell Titer Glo viability assay, ACHN cells. The assay is classed as cell-based. Particulars: Homo sapiens, 144 h, absolute EC50. Put shortly:
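Cells grown in MEM with 10% FCS were seeded at 500 (A427), 400 (ACHN) or 250 (DAOY) per well and treated the next day with compound at 17 to 10 000 nM. Viability relative to untreated control was read at 144 h by CellTiter-Glo 2.0.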
In general terms: ATP-based viability assays read luminescence as a measure of living cells.

Assay [1] deals with T1, Wee1A kinase (CDK1 Tyr15 phosphorylation in ACHN renal cell carcinoma cells) (Homo sapiens, UniProt P30291).
T1 construct: pCDK1 Tyr15 immunofluorescence read-out
The assay is described as follows: High-content imaging of pCdk1 Y15, Wee1A kinase target engagement in ACHN cells. It counts as cell-based. Put shortly: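 ACHN cells exposed to compound for 4 h over 7–5,000 nM or 0.3–200 nM, then fixed and immunostained for pCDK1 Y15 with DAPI nuclear counterstain. The percentage of pCdk1 Y15 nucleus-positive cells relative to DMSO control was imaged per well; EC50 from dose-response curves.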

Assay [2] addresses T2, Myt1 kinase (CDK1 Thr14 phosphorylation in DAOY medulloblastoma cells) (Homo sapiens, UniProt Q99640).
T2 construct: pCDK1 Thr14 AlphaLISA read-out
T2 sequence (Q99640 1-499): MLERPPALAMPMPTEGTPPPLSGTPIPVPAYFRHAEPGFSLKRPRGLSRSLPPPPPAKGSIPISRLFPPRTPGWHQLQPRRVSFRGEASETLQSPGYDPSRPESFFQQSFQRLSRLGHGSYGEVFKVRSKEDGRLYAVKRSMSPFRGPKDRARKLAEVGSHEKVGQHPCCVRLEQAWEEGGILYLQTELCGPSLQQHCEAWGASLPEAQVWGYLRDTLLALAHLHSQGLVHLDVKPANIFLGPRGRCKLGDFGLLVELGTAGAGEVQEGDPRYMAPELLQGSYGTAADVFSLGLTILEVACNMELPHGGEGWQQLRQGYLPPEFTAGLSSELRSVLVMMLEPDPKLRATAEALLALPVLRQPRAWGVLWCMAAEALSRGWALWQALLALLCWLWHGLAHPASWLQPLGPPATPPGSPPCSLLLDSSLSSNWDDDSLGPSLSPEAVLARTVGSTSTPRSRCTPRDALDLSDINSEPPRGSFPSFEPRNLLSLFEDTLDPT
Kind of assay: AlphaLISA assay, Myt1 kinase target engagement (phospho-CDK1 Thr14) in DAOY cells. It counts as cell-based. As for the experimental part:
Each of an ACHN renal cell carcinoma cell line (ATCC) and a DAOY medulloblastoma cell line, and an A427 lung cancer line were cultured in Minimum Essential Medium Eagle supplemented with 10% fetal calf serum (Sigma), 1% Penicillin-Streptomycin and 10 mM HEPES buffer (HyClone). Cell cultures were kept in a humidified incubator at 37 °C and 5% CO2. Cells were routinely tested for Mycoplasma contamination.
For target engagement assessment of Myt1 kinase inhibition, quantification of Cdk1 phosphorylated on threonine 14 was detected using the AlphaLISA® SureFire® Ultra™ Human Phospho-CDK1 (Thr14) assay (Perkin Elmer). DAOY or ACHN cells were seeded into tissue culture treated 96-well plates (VWR) to a density of 10,000 or 20,000 cells per well respectively. 24 h post seeding cells were treated for 4 h with compounds at concentrations ranging from 7 to 5000 nM. Cells were washed with PBS and lysed in 50 μl AlphaLISA lysis buffer before freezing at −80 C. Ten ul of the lysate was transferred to 384 well plates and incubated with AlphaLISA donor and acceptor beads according to the manufacturer's instructions. Dose response curves and EC50 values were calculated and visualized using GraphPad Prism version 9. Target engagement for Myt1 kinase can also be measured using the same AlphaLISA assay in OVCAR3 cells, an ovarian cancer cell line. NIH:OVCAR-3 (OVCAR3) cells are cultured in RPMI-1640 medium supplemented with 0.01 mg/ml insulin, 20% FBS, 1% Penicillin-Streptomycin and 10 mM HEPES buffer. 14,000 cells per well are seeded into 96 well tissue culture plates in full medium. Twenty-four hours post seeding, cells are treated with compound for 4 hours at concentrations ranging from 0.017 nM to 1000 nM.

Assay [3] deals with T3, Myt1 kinase (recombinant PMYT-1) (Homo sapiens, UniProt Q99640).
T3 construct: full length PMYT-1 was expressed by baculovirus in insect cells; purchased Invitrogen A30984; host or cells: insect cells (baculovirus)
T3 sequence (Q99640 1-499): T2 sequence (Q99640 1-499)
The assay is described as follows: Myt1 kinase binding assay (LanthaScreen Eu Kinase Binding Assay). An outline of the steps: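 The binding affinity of compounds for Myt1 kinase was measured with a LanthaScreen Europium (Eu) Kinase Binding Assay, a time-resolved FRET format in which test compounds compete against a labeled kinase tracer, and the results were expressed as IC50 values describing compound binding to Myt1.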

Assay [4] deals with T4, recombinant human Wee1A kinase (Homo sapiens, UniProt P30291).
T4 construct: full length Wee1 kinase was expressed by baculovirus in insect cells; purchased Invitrogen PV3817; host or cells: insect cells (baculovirus)
The assay is described as follows: Wee1A kinase binding assay (LanthaScreen Eu time-resolved FRET). An outline of the steps:
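Full-length, baculovirus-expressed GST-tagged Wee1A (5 nM) was mixed with 2 nM Eu-anti-GST antibody, 30 nM kinase tracer 178 and compound (1% DMSO). Buffer was 50 mM HEPES pH 7.5, 10 mM MgCl2, 1 mM EGTA, 0.01% Brij-35, incubated 60 min at room temperature. TR-FRET 665/615 nm emission ratios from duplicates were curve-fitted.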
(In general: In TR-FRET formats the signal depends on donor and acceptor labels being close together.)

The mark [5] stands for this setting: 4 h treatment, nuclear positivity for pCdk1 Y15 vs DMSO control, read-out: CDK1 Tyr15 Phosphorylation EC50.
[6] abbreviates: 4 h treatment, read-out: CDK1 Thr14 Phosphorylation EC50.
The mark [7] stands for this setting: 3 nM tracer 178, 2.5 nM PMYT-1, 1 nM Eu-labeled antibody, read-out: Myt1 kinase Binding IC50.
[8] abbreviates: 30 nM tracer 178, 5 nM Wee1A kinase, 2 nM Eu-labeled antibody, 60 minutes at room temperature, read-out: Wee1A kinase Binding IC50.

T1 sequence (P30291 whole entry): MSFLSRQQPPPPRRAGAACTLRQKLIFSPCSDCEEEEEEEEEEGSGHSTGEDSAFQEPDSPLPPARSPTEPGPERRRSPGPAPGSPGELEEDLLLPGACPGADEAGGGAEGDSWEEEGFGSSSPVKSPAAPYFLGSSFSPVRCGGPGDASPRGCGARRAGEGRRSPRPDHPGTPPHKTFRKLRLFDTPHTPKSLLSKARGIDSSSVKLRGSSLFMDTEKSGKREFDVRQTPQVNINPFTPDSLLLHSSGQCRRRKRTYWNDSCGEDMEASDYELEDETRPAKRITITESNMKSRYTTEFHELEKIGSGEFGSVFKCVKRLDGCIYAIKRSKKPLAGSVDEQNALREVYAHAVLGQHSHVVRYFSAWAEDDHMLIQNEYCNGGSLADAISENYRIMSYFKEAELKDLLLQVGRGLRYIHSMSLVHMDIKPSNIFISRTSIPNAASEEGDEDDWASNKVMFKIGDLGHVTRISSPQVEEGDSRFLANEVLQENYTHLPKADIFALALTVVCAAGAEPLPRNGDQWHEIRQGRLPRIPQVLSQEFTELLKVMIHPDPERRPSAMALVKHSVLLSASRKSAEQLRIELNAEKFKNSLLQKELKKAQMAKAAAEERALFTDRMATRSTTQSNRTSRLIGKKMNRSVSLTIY
T4 sequence (P30291 whole entry): as above

On to `C=CCn1c(=O)c2cnc(Nc3ccc(OCC)cc3)nc2n1-c1cccc(OC2CCNCC2)n1` [Compound 254, 2-allyl-6-((4-ethoxyphenyl)amino)-1-(6-(piperidin-4-yloxy)pyridin-2-yl)-1,2-dihydro-3H-pyrazolo[3,4-d]pyrimidin-3-one], for which the values for the EC50 (in the assay on ACHN cells; in assay [1] (setting [5]); in assay [2] (setting [6])) were at most 100 nM, below 100 nM and 500 to 1000 nM, respectively. Further, the IC50 (commonly the point on the concentration scale where inhibition reaches its midpoint) is 20 to 100 nM in assay [3] (setting [7]) and below 10 nM in assay [4] (setting [8]).

On to `C=CCn1c(=O)c2cnc(Nc3ccc(C#N)c(C)c3)nc2n1-c1cccc(OC2CCN(C)CC2)n1` [Compound 204, 2-methyl-4-[(1-{6-[(1-methylpiperidin-4-yl)oxy]pyridin-2-yl}-3-oxo-2-(prop-2-en-1-yl)-1H,2H,3H-pyrazolo[3,4-d]pyrimidin-6-yl)amino]benzonitrile], for which the EC50 (in general, the concentration that produces a half-maximal response) was at most 100 nM in the assay on ACHN cells, below 100 nM in assay [1] (setting [5]) and above 1000 nM in assay [2] (setting [6]). The IC50 is 20 to 100 nM in assay [3] (setting [7]) and below 10 nM in assay [4] (setting [8]).

With `C=CCn1c(=O)c2cnc(Nc3ccc4cnccc4c3)nc2n1-c1cccc(OC2CCNCC2)n1` [Compound 244, 2-allyl-6-(6-isoquinolylamino)-1-[6-(4-piperidyloxy)-2-pyridyl]-1,2-dihydro-3H-1,2,5,7-tetraazainden-3-one], the results for the EC50 (with ACHN cells; in assay [1] (setting [5]); in assay [2] (setting [6])) were 100 to 500 nM, below 100 nM and 500 to 1000 nM, respectively. Further, the results for the IC50 in assay [3] (setting [7]) and in assay [4] (setting [8]) were 20 to 100 nM and below 10 nM, respectively.

`C=CCn1c(=O)c2cnc(Nc3ccc(Cl)cc3)nc2n1-c1cccc(O[C@H]2CCNC2)n1` [Compound 145, 1-{6-[(S)-3-pyrrolidinyloxy]-2-pyridyl}-2-allyl-6-(p-chlorophenylamino)-1,2-dihydro-3H-1,2,5,7-tetraazainden-3-one]: the EC50 in the assay with ACHN cells fell in the range of 100 to 500 nM; in assay [1] (setting [5]) it was 100 to 500 nM; in assay [2] (setting [6]), 200 to 500 nM. Moreover, the values for the IC50 in assay [3] (setting [7]) and in assay [4] (setting [8]) were 20 to 100 nM and below 10 nM, respectively.

With `C=CCn1c(=O)c2cnc(Nc3ccc(OCC4CC4)cc3)nc2n1-c1cccc(OC2CCNCC2)n1` [Compound 259, 2-allyl-6-((4-(cyclopropylmethoxy)phenyl)amino)-1-(6-(piperidin-4-yloxy)pyridin-2-yl)-1,2-dihydro-3H-pyrazolo[3,4-d]pyrimidin-3-one], the EC50 was at most 100 nM in the assay on ACHN cells, below 100 nM in assay [1] (setting [5]) and 200 to 500 nM in assay [2] (setting [6]). The IC50 in assay [3] (setting [7]) was below 20 nM; in assay [4] (setting [8]) it was below 10 nM.

In the case of `C=CCn1c(=O)c2cnc(Nc3cnn(C)c3)nc2n1-c1cccc(O[C@H]2C[C@H]3CC[C@@H](C2)N3C)n1` [Compound 190, 6-[(1-methyl-1H-pyrazol-4-yl)amino]-1-(6-{[(trans)-8-methyl-8-azabicyclo[3.2.1]octan-3-yl]oxy}pyridin-2-yl)-2-(prop-2-en-1-yl)-1H,2H,3H-pyrazolo[3,4-d]pyrimidin-3-one], the EC50 with ACHN cells lay in the range of 100 to 500 nM; in assay [1] (read-out: CDK1 Tyr15 Phosphorylation EC50, 4 h treatment, nuclear positivity for pCdk1 Y15 vs DMSO control), 100 to 500 nM; in assay [2] (read-out: CDK1 Thr14 Phosphorylation EC50, 4 h treatment), 500 to 1000 nM. The IC50 in assay [3] (Myt1 kinase Binding IC50, 3 nM tracer 178, 2.5 nM PMYT-1, 1 nM Eu-labeled antibody) is below 20 nM; in assay [4], below 10 nM.

Turning to `C=CCn1c(=O)c2cnc(Nc3ccc4c(c3)OCO4)nc2n1-c1cccc(NC2CCN(C)CC2)n1` [Compound 196, 2-allyl-6-(2H-1,3-benzodioxol-5-ylamino)-1-[6-(1-methyl-4-piperidylamino)-2-pyridyl]-1,2-dihydro-3H-1,2,5,7-tetraazainden-3-one], the values for the EC50 (in the assay on ACHN cells; in assay [1] (setting [5]); in assay [2] (setting [6])) were at most 100 nM, below 100 nM and above 1000 nM, respectively. The IC50 in assay [3] (setting [7]) was 100 to 500 nM; in assay [4] (setting [8]), below 10 nM.

Consider `C=CCn1c(=O)c2cnc(Nc3ccc4c(cnn4C)c3)nc2n1-c1cccc(O[C@H]2CCCNC2)n1` [Compound 104, 1-{6-[(S)-3-piperidyloxy]-2-pyridyl}-2-allyl-6-(1-methyl-1H-indazol-5-ylamino)-1,2-dihydro-3H-1,2,5,7-tetraazainden-3-one], for which the EC50 in the assay on ACHN cells is at most 100 nM; in assay [1] (setting [5]), below 100 nM; in assay [2] (setting [6]), 200 to 500 nM. For the same compound, the IC50 was below 20 nM in assay [3] (setting [7]) and below 10 nM in assay [4] (setting [8]).

Regarding `C=CCn1c(=O)c2cnc(Nc3ccc(Cl)cc3)nc2n1-c1cccc(OC2CCNCC2)n1` [Compound 141, 2-allyl-6-((4-chlorophenyl)amino)-1-(6-(piperidin-4-yloxy)pyridin-2-yl)-1,2-dihydro-3H-pyrazolo[3,4-d]pyrimidin-3-one], the values for the EC50 (with ACHN cells; in assay [1] (setting [5]); in assay [2] (setting [6])) were 100 to 500 nM, below 100 nM and 200 to 500 nM, respectively. For the same compound, the values for the IC50 in assay [3] (setting [7]) and in assay [4] (setting [8]) were below 20 nM and below 10 nM, respectively.

With `C=CCn1c(=O)c2cnc(Nc3ccc(OC)nc3)nc2n1-c1cccc(OC2CCN(C)CC2)n1` [Compound 250, 2-allyl-6-(6-methoxy-3-pyridylamino)-1-[6-(1-methyl-4-piperidyloxy)-2-pyridyl]-1,2-dihydro-3H-1,2,5,7-tetraazainden-3-one], the EC50 in the assay with ACHN cells was at most 100 nM; in assay [1] (setting [5]), below 100 nM; in assay [2] (setting [6]), 200 to 500 nM. Moreover, the IC50 in assay [3] (setting [7]) was 20 to 100 nM; in assay [4] (setting [8]), below 10 nM.

In the case of `C=CCn1c(=O)c2cnc(Nc3ccc4c(cnn4C)c3)nc2n1-c1ccnc(NC2CCN(C)CC2)n1` [Compound 313, 2-allyl-6-(1-methyl-1H-indazol-5-ylamino)-1-[2-(1-methyl-4-piperidylamino)-4-pyrimidinyl]-1,2-dihydro-3H-1,2,5,7-tetraazainden-3-one], the EC50 with ACHN cells was at most 100 nM; in assay [1] (setting [5]), below 100 nM; in assay [2] (setting [6]), above 1000 nM. Also, the IC50 in assay [3] (setting [7]) was 20 to 100 nM; in assay [4] (setting [8]), below 10 nM.

Take `C=CCn1c(=O)c2cnc(Nc3ccc4nsnc4c3)nc2n1-c1cccc(OC2CCN(C)CC2)n1` [Compound 208, 2-allyl-6-(2,1,3-benzothiadiazol-5-ylamino)-1-[6-(1-methyl-4-piperidyloxy)-2-pyridyl]-1,2-dihydro-3H-1,2,5,7-tetraazainden-3-one]: the EC50 in the assay on ACHN cells is at most 100 nM; in assay [1] (setting [5]), below 100 nM; in assay [2] (setting [6]) it was 200 to 500 nM. Also, the IC50 in assay [3] (setting [7]) was below 20 nM; in assay [4] (setting [8]), below 10 nM.

Source of the values: patent US20260364080A1, “PYRAZOLO-PYRIMIDINONE COMPOUNDS FOR USE IN METHODS OF INHIBITING WEE1 A KINASE” (Acrivon Therapeutics, Inc., priority 2023, published 2026).
